In US20100240594A1, “TARGETED DELIVERY OF CHEMOTHERAPEUTIC AGENTS” (Burnham Institute for Medical Research, priority 2009, published 2010):

System: pre-established subcutaneous PC3 tumors
Assay: Tumor growth in PC3 tumor-bearing mice treated i.v. twice a week
Format: in vivo, SCID-beige mice
Settings: i.v. twice weekly from day 19 for ~3 weeks; taxol 5 mg/Kg, doxorubicin 2 mg/Kg, YSA conjugates at 1 and 5 fold molar equivalents of the parent drug dose
Procedure: Tumor sizes were measured and averages +/−SE are shown. The data in (A) and (B) are from the same experiment and share the same control.

SMILES: COc1cccc2c1C(=O)c1c(O)c3c(c(O)c1C2=O)C[C@@](O)(C(=O)CO)C[C@@H]3O[C@H]1C[C@H](N)[C@H](O)[C@H](C)O1 [doxorubicin]
- tumor growth inhibition compared with vehicle control: not significantly different from vehicle control

SMILES: CC(=O)O[C@H]1C(=O)[C@@]2(C)[C@H]([C@H](OC(=O)c3ccccc3)[C@]3(O)C[C@H](OC(=O)[C@H](O)[C@@H](NC(=O)c4ccccc4)c4ccccc4)C(C)=C1C3(C)C)[C@]1(OC(C)=O)CO[C@@H]1C[C@@H]2O [taxol]
- tumor growth inhibition compared with vehicle control: not significantly different from vehicle control
